# Earlier results in patent US10603349B2, “Method for preparing pharmaceutical compositions of rhizomes from Alpinia galanga or Alpinia conchigera having a high content of 1′S-1′-acetoxychavicol acetate (ACA)” (NERTHUS APS, priority 2013, dated 2020).
# Tested on: whole-body insulin resistance
# Settings: fructose-induced rat model of metabolic syndrome
smiles,measurement,value
"O=c1c(O)c(-c2ccccc2)oc2cc(O)cc(O)c12 [Galangin, galangin]",Blood glucose and insulin levels,dose-dependently normalized
